{"source": "paper PMC11036874", "about": "“In vitro characterization of [^125I]HY-3-24, a selective ligand for the dopamine D3 receptor” (Frontiers in Neuroscience, 2024)", "key": {"[1]": {"target": "ɤ-aminobutyric acid type A", "assay": "PDSP binding screen", "conditions": "HCl salt", "text": "(§1) The binding of HY-3-24 to various GPCRs was investigated through comprehensive screening by Psychoactive Drug Screening Program (PDSP) (Supplementary Table S1) ([Besnard et al., 2012]). These GPCRs included major neurotransmitter receptors family (e.g., dopamine, serotonin, histamine, opioid, muscarinic, adrenergic, sigma receptors, ɤ-amino-butyric acid type A, and benzodiazepine receptors) and transporters (e.g., dopamine, norepinephrine, and serotonin transporter)."}, "[2]": {"target": "T1, dopamine active transporter (Homo sapiens, UniProt Q01959)", "T1 construct": "Psychoactive Drug Screening Program (PDSP)", "T1 sequence (Q01959 whole entry)": "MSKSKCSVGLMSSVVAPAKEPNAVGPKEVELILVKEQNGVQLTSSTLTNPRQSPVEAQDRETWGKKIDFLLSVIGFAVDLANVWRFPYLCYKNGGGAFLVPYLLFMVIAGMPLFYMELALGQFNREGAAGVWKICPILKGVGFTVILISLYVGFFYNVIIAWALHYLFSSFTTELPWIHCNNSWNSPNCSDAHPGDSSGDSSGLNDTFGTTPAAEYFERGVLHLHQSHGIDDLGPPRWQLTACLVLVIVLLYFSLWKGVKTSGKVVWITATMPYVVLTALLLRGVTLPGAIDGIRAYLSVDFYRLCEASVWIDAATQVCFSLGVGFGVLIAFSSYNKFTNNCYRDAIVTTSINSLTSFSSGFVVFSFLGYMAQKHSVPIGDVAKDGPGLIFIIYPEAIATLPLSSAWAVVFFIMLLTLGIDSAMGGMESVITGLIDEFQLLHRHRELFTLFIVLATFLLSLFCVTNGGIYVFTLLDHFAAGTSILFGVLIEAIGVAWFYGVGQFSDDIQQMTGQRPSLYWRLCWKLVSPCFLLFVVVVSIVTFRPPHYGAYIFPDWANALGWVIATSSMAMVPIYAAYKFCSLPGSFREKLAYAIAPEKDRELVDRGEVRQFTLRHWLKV", "assay": "PDSP binding screen", "conditions": "HCl salt", "text": "as §1"}, "adrenergic alpha2B": {"target": "T2, adrenergic alpha2B (Homo sapiens, UniProt P18089)", "T2 construct": "Psychoactive Drug Screening Program (PDSP)", "T2 sequence (P18089 whole entry)": "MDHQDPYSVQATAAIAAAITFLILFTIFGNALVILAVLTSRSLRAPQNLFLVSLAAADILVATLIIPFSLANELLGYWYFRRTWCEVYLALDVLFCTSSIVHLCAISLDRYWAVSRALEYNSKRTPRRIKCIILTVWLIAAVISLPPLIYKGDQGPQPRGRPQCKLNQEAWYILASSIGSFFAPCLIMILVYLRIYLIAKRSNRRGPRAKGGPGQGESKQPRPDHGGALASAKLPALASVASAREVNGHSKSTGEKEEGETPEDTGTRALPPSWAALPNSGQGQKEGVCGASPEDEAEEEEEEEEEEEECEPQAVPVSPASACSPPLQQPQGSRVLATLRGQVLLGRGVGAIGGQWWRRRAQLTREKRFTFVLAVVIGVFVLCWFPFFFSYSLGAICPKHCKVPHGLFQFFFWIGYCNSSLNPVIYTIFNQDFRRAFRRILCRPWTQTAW", "assay": "PDSP binding screen", "conditions": "HCl salt", "text": "as §1"}, "human D3R [3]": {"target": "T3, human D3R (Homo sapiens, UniProt P35462)", "T3 sequence (P35462 whole entry)": "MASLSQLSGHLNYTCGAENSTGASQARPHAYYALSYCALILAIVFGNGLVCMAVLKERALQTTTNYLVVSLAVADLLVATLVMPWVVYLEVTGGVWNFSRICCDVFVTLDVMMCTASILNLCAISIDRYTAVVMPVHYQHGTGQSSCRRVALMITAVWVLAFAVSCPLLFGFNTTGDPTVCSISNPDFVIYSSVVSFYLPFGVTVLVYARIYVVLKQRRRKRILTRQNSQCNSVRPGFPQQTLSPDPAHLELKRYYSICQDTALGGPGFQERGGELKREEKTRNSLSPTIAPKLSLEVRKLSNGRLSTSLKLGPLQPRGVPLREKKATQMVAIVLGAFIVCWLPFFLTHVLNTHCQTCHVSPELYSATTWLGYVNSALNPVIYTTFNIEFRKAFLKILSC", "assay": "β-arrestin recruitment assay for D3R", "format": "cell-based", "set-up": "expressed in transfected cells", "experimental": "Chinese hamster ovary CHO-K1 cells (CHO-K1) which were over expressed human D3R were cultured in assaycomplete™ cell culture kit 107 (DiscoverX, Fremont, CA, United States). Cells were seeded at a density of 25,000 cells per well of 96-well plate, and incubated at 5% CO2, 37°C. After 46 h, HY-3-24 was (10^−5 to 10^−11) in phosphate-buffered saline (PBS) was added to the cells. The plates were incubated for 30 min at 5% CO2, 37°C for the agonist binding assay; for the antagonist assay, cells were treated with 30 nM (EC80) of dopamine and then the mixture was incubated for 90 min. PathHunter™ β-arrestin recruitment assay kit (DiscoverX, Fremont, CA, United States) was added to each well, and the plate was incubated for 80 min at RT under the dark condition. The chemiluminescent signal was measured on a PerkinElmer Enspire plate reader (PerkinElmer, Boston, MA, United States). Data were analyzed by Prism followed by non-linear regression."}, "human D4": {"target": "T4, human D4 (Homo sapiens, UniProt P21917)", "T4 construct": "expressed in transfected cells; host or cells: HEK293", "T4 sequence (P21917 whole entry)": "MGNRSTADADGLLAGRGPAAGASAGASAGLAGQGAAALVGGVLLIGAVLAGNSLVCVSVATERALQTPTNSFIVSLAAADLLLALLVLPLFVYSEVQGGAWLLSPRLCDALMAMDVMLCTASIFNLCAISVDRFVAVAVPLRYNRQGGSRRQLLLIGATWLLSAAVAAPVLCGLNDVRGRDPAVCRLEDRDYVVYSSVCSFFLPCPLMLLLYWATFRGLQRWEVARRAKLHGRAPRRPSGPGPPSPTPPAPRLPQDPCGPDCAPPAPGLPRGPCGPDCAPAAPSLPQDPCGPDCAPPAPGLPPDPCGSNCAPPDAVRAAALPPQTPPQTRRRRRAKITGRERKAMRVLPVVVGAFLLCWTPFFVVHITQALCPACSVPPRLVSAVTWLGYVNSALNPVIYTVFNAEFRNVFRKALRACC", "assay": "D4R radioligand binding assay with [125I]IABN", "conditions": "human D4 transfected HEK293 cell membranes, mean ± SEM of three experiments", "experimental": "(§2) The dopamine receptor binding assay was performed according to previous studies ([Luedtke et al., 2000]; [Vangveravong et al., 2006]; [Reilly et al., 2017]), and human D2R or D3R or D4 transfected HEK293 cells were used for dopamine receptor binding assay. The cells were grown in Dulbecco’s Modified Eagle Medium including 10% FBS, 0.1% Penn Strep, […] of geneticin (G418) for human D2R or D3R transfected HEK293 cells, and […] of puromycin for human D4 HEK293 cells at 5% CO2, 37°C. The cells were collected by centrifuge (6,000 × g, 10 min), and the supernatant was discarded. Cold homogenization buffer (50 mM Na Hepes, 0.1 mM EDTA, 1 mM DTT, pH 7.4) was added into the pellet and homogenized by a polytron (Brinkmann Instruments, Westbury, NY, United States), and centrifuged at 40,000 × g for 10 min. This process was repeated two more times to get final pellet, and the membranes were then resuspended with HB buffer including 5 mM MgCl2 and stored at −80°C until use.\nHY-3-24 was prepared in 10^−5 to 10^−11 M concentration range with assay buffer (50 mM Tris–HCl, 150 mM NaCl, 10 mM EDTA, pH 7.5). […] The membrane was washed with cold buffer (three times), and collected filters were counted on a gamma counter (GMI, Minnesota, United States). The results were analyzed by nonlinear regression, and the data were reported mean ± SEM values by three independent experiments."}, "sigma-2": {"target": "T5, sigma-2 (Rattus norvegicus, UniProt Q5U3Y7)", "T5 construct": "rat liver homogenates (15 μg/100 μL); from tissue; host or cells: rat liver homogenates", "T5 sequence (Q5U3Y7 whole entry)": "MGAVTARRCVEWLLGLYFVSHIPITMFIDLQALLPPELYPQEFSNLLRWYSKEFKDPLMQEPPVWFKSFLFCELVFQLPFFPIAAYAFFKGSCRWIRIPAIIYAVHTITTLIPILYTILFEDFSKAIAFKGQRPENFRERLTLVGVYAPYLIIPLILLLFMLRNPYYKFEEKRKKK", "assay": "Sigma-2 binding assay with [125I]RHM4", "conditions": "[125I]RHM4, rat liver homogenates", "experimental": "For sigma-2 binding assay, HY-3-24 prepared in 10^−5 to 10^−11 M concentration range was mixed with [^125I]RHM4 (50 μL,~200,000 cpm) and rat liver homogenates (15 μg/100 μL). The mixture was vortexed briefly and incubated at room temperature (RT) for 90 min. The [^125I]RHM4-bound membrane was collected through Whatman CF/C filters by 24-well harvester (Brandel Inc., Maryland, United States), and washed with 4 mL of cold buffer. The filters were counted on a gamma counter (PerkinElmer, Massachusetts, United States). Cold RHM4 was used for defining non-specific binding. The Ki value was obtained by PRISM 9."}, "human D3R [4]": {"target": "T3, human D3R", "assay": "D3R radioligand binding assay with [125I]IABN", "set-up": "expressed in transfected cells; host or cells: HEK293", "experimental": "as §2\nHY-3-24 was prepared in 10^−5 to 10^−11 M concentration range with assay buffer (50 mM Tris–HCl, 150 mM NaCl, 10 mM EDTA, pH 7.5). Membrane homogenates (5–15 μg) and [^125I]IABN (approximately 0.5 nM) was added into serial dilutions of the compound and incubated at 37°C, for 60 min. Total binding volume was 150 μL, and 20 μM of (+)-butaclamol was used to define non-specific binding. Cold buffer (10 mM Tris–HCl, 150 mM NaCl, pH 7.5) was added into the reaction tube to terminate binding assay, and mixture was quickly filtered through a Schleicher and Schuell No.32 filter (GE Heathcare Bio-Sciences, Pittsburgh, PA, United States). The membrane was washed with cold buffer (three times), and collected filters were counted on a gamma counter (GMI, Minnesota, United States). The results were analyzed by nonlinear regression, and the data were reported mean ± SEM values by three independent experiments."}, "sigma-1": {"target": "T6, sigma-1 (Cavia porcellus, UniProt Q60492)", "T6 construct": "from tissue; host or cells: guinea pig brain homogenates", "T6 sequence (Q60492 whole entry)": "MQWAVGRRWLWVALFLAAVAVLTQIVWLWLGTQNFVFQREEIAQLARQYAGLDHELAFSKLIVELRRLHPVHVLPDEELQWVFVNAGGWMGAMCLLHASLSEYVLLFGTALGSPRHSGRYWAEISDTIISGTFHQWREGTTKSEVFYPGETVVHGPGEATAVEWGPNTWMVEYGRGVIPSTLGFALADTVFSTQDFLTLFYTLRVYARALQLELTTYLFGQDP", "assay": "Sigma-1 binding assay with [3H]-(+)-pentazocine", "conditions": "guinea pig brain homogenates", "experimental": "The preparation of protein homogenates and sigma binding assay were conducted as described previously ([Luedtke et al., 2000]). For sigma-1 binding assay, [^3H]-(+)-pentazocine (50 μL, ~50,000 cpm) and HY-3-24 (concentrations ranging from 10^−5 to 10^−11 M) were mixed, guinea pig brain homogenates (100 μg/100 μL) were added and the mixture was incubated at 5% CO2, 37°C for 90 min. The assay was terminated by adding cold buffer (10 mM Tris–HCl, 150 mM NaCl, pH 7.5), and the mixture was filtered htrough Whatman CF/C filters (Brandel Inc., Maryland, United States) which were soaked in 1% polyethyleneimine (PEI). The collected filter was washed three times using cold buffer; non-specific binding was determined in the presence of 10 μM of haloperidol. The collected filters were mixed with 3 mL of microscint™20 by and counted overnight (1 min/well) using a beta counter (MicroBeta^2®, PerkinElmer, United Kingdom). The data were analyzed using PRISM 9."}, "[5]": {"conditions": "[125I]IABN, human D3R transfected HEK293 cell membranes, mean ± SEM of three experiments"}}, "note": "Entries after “also recorded” stand apart in the source; their conditions may differ.", "data": [{"smiles": "CCN(CCCNC(=O)c1ccc(-c2ccncc2)cc1)CCNC(=O)c1cc(I)cc(OC)c1OC", "note": "[HY-3-24, N-(2-(Ethyl(3-(4-(pyridin-4-yl)benzamido)propyl)amino)ethyl)-5-iodo-2,3-dimethoxybenzamide]", "values": [{"measurement": "Ki", "setting": "[1]", "result": 1.12, "unit": "µM"}, {"measurement": "Ki", "setting": "[2]", "result": 1.13, "unit": "µM"}, {"measurement": "Ki", "setting": "adrenergic alpha2B", "result": 1.07, "unit": "µM"}, {"measurement": "EC50 β-arrestin recruitment D3R", "setting": "human D3R [3]; agonist mode, 10^-5 to 10^-11 M, human D3R CHO-K1 cells", "result": "no β-arrestin recruitment; also recorded: N.A (not active)"}, {"measurement": "IC50", "setting": "human D3R [3]; antagonist mode, vs 30 nM (EC80) dopamine, human D3R CHO-K1 cells", "result": "0.0015 ± 0.00058", "unit": "µM"}, {"measurement": "functional mode at D3R", "setting": "human D3R [3]; β-arrestin recruitment assay", "result": "antagonist"}, {"measurement": "Ki", "setting": "human D4", "result": "> 1", "unit": "µM"}, {"measurement": "Ki D4R", "setting": "human D4; listed as HY-2-34", "result": "negligible"}, {"measurement": "binding to sigma-2 receptors", "setting": "sigma-2", "result": "did not bind"}, {"measurement": "binding to sigma-2 receptors", "setting": "sigma-2; listed as HY-2-34", "result": "low affinity"}, {"measurement": "Ki", "setting": "human D3R [4]; [5]", "result": "0.00067 ± 0.00011", "unit": "µM"}, {"measurement": "Ki D3R", "setting": "human D3R [4]; [5]", "result": "sub-nM affinity"}, {"measurement": "selectivity for D3R vs. D2R", "setting": "human D3R [4]; from Ki values, [125I]IABN", "result": "~ 129 fold"}, {"measurement": "D2/D3 ratio", "setting": "human D3R [4]; ratio of Ki D2R to Ki D3R", "result": 129}, {"measurement": "binding to sigma-1 receptors", "setting": "sigma-1", "result": "did not bind"}, {"measurement": "binding to sigma-1 receptors", "setting": "sigma-1; listed as HY-2-34", "result": "low affinity"}]}]}
